{"source": "patent US20020026053A1", "about": "“Novel 3-(substituted) -2- indolinones compounds and use thereof as inhibitors of protein kinase activity” (priority 1997, published 2002)", "data": [{"target": "T1, EGFR (Homo sapiens, UniProt P00533)", "T1 construct": "endogenous in cells; host or cells: A431 cells (lysate, captured with SUMO1 anti-EGFR antibody)", "T1 sequence (P00533 25-1210)": "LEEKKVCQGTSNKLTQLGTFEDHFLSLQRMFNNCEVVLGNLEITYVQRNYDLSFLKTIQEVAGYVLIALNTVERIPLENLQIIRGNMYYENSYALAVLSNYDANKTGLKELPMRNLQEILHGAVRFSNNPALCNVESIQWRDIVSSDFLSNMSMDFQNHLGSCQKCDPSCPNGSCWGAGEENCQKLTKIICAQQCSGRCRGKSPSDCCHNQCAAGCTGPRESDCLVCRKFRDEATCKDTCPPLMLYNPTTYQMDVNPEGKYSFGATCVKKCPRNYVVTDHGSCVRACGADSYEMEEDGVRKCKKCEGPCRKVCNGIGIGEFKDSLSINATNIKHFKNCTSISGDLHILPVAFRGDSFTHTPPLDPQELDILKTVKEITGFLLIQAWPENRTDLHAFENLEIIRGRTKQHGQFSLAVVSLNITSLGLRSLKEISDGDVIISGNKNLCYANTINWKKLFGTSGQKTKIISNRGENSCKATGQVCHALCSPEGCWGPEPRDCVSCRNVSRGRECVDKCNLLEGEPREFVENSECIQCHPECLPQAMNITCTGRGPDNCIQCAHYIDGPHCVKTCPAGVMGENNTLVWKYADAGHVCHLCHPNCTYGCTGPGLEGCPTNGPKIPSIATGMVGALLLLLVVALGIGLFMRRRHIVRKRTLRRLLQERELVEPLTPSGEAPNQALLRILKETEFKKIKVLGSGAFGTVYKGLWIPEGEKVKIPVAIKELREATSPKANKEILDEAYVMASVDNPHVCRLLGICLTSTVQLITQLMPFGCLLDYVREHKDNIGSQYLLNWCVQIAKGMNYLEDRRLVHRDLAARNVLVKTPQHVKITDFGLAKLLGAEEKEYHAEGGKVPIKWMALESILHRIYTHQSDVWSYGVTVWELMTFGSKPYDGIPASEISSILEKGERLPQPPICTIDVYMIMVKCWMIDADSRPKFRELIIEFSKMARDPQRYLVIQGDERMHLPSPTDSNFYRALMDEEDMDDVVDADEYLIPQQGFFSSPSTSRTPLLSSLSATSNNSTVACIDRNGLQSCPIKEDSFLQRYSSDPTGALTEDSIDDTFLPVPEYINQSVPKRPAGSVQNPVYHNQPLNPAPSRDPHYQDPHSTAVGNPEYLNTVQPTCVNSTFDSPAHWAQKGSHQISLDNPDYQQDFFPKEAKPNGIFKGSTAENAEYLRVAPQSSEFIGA", "experiment": "Biochemical EGFR Assay", "design": "concentration or dose not given beside the values", "conditions": "protocol P.167", "how_it_was_run": "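Readout is ABTS absorbance at 410 nm after anti-phosphotyrosine and HRP-antibody detection of EGFR autophosphorylation. The kinase was immunocaptured from A431 lysate, exposed 30 min to test compound diluted 1:10 in TBS, then phosphorylated for 5 min with ATP/MnCl2 before an EDTA stop.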", "units": {"Biochem EGFR % Inhibition (P.167)": "%"}, "values": [{"smiles": "O=C1Nc2ccc(S(=O)(=O)N3CCOCC3)cc2C1=Cc1cc(F)ccc1F", "note": "[10737/F04]", "Biochem EGFR % Inhibition (P.167)": "−23.3"}, {"smiles": "O=C1Nc2ccc(S(=O)(=O)N3CCOCC3)cc2C1=Cc1cccc(F)c1F", "note": "[10737/F05]", "Biochem EGFR % Inhibition (P.167)": "−24.0"}, {"smiles": "COc1ccc(C=C2C(=O)Nc3ccc(S(=O)(=O)N4CCOCC4)cc32)cc1F", "note": "[10737/F06]", "Biochem EGFR % Inhibition (P.167)": "−13.7"}, {"smiles": "Cc1ccc(C)c(C=C2C(=O)Nc3ccc(S(=O)(=O)N4CCOCC4)cc32)c1", "note": "[10737/F07]", "Biochem EGFR % Inhibition (P.167)": "−25.5"}, {"smiles": "O=C1Nc2ccc(S(=O)(=O)N3CCOCC3)cc2C1=Cc1ccc2ccccc2c1", "note": "[10737/F08]", "Biochem EGFR % Inhibition (P.167)": 28.3}, {"smiles": "O=C1Nc2ccc(S(=O)(=O)N3CCOCC3)cc2C1=Cc1ccc(Oc2ccccc2)cc1", "note": "[10737/F09]", "Biochem EGFR % Inhibition (P.167)": 23.5}, {"smiles": "CC(C)(C)c1ccc(Oc2cccc(C=C3C(=O)Nc4ccc(S(=O)(=O)N5CCOCC5)cc43)c2)cc1", "note": "[10737/F10]", "Biochem EGFR % Inhibition (P.167)": 14.6}, {"smiles": "O=C1Nc2ccc(S(=O)(=O)N3CCOCC3)cc2C1=Cc1cccc(Oc2cccc(C(F)(F)F)c2)c1", "note": "[10737/F11]", "Biochem EGFR % Inhibition (P.167)": "−0.7"}, {"smiles": "CCOc1ccc(C=C2C(=O)Nc3ccc(CCCl)cc32)cc1", "note": "[10737/G02]", "Biochem EGFR % Inhibition (P.167)": 12.4}, {"smiles": "Cc1ccc(C=C2C(=O)Nc3ccc(CCCl)cc32)c(C)c1", "note": "[10737/G03]", "Biochem EGFR % Inhibition (P.167)": "−0.5"}, {"smiles": "O=C1Nc2ccc(CCCl)cc2C1=Cc1cc(F)ccc1F", "note": "[10737/G04]", "Biochem EGFR % Inhibition (P.167)": "−19.3"}, {"smiles": "O=C1Nc2ccc(CCCl)cc2C1=Cc1cccc(F)c1F", "note": "[10737/G05]", "Biochem EGFR % Inhibition (P.167)": "−41.4"}, {"smiles": "COc1ccc(C=C2C(=O)Nc3ccc(CCCl)cc32)cc1F", "note": "[10737/G06]", "Biochem EGFR % Inhibition (P.167)": "−43.4"}, {"smiles": "Cc1ccc(C)c(C=C2C(=O)Nc3ccc(CCCl)cc32)c1", "note": "[10737/G07]", "Biochem EGFR % Inhibition (P.167)": "−25.0"}, {"smiles": "O=C1Nc2ccc(CCCl)cc2C1=Cc1ccc2ccccc2c1", "note": "[10737/G08]", "Biochem EGFR % Inhibition (P.167)": 30.8}, {"smiles": "O=C1Nc2ccc(CCCl)cc2C1=Cc1ccc(Oc2ccccc2)cc1", "note": "[10737/G09]", "Biochem EGFR % Inhibition (P.167)": 23.6}, {"smiles": "CC(C)(C)c1ccc(Oc2cccc(C=C3C(=O)Nc4ccc(CCCl)cc43)c2)cc1", "note": "[10737/G10]", "Biochem EGFR % Inhibition (P.167)": 17.2}, {"smiles": "O=C1Nc2ccc(CCCl)cc2C1=Cc1cccc(Oc2cccc(C(F)(F)F)c2)c1", "note": "[10737/G11]", "Biochem EGFR % Inhibition (P.167)": 2.8}, {"smiles": "CCOc1ccc(C=C2C(=O)Nc3c(Br)cc(Br)c(C)c32)cc1", "note": "[10737/H02]", "Biochem EGFR % Inhibition (P.167)": "−17.2"}, {"smiles": "Cc1ccc(C=C2C(=O)Nc3c(Br)cc(Br)c(C)c32)c(C)c1", "note": "[10737/H03]", "Biochem EGFR % Inhibition (P.167)": "−22.6"}, {"smiles": "Cc1c(Br)cc(Br)c2c1C(=Cc1cc(F)ccc1F)C(=O)N2", "note": "[10737/H04]", "Biochem EGFR % Inhibition (P.167)": "−17.6"}, {"smiles": "Cc1c(Br)cc(Br)c2c1C(=Cc1cccc(F)c1F)C(=O)N2", "note": "[10737/H05]", "Biochem EGFR % Inhibition (P.167)": "−17.4"}, {"smiles": "COc1ccc(C=C2C(=O)Nc3c(Br)cc(Br)c(C)c32)cc1F", "note": "[10737/H06]", "Biochem EGFR % Inhibition (P.167)": "−31.0"}]}]}
